# Molecular target: T1, cloned human dopamine D3 receptors (Homo sapiens, UniProt P35462)
# T1 construct: expressed in transfected cells; membrane homogenate
# Experiment: [N-Methyl-3H]Spiroperidol binding to cloned human dopamine D3 receptors
# Settings: read-out: D3 Ki
# Method in brief: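 Stably transfected CHO cells expressing cloned human D3 receptor were used as membranes homogenized in 10% DMSO. Ligand was [N-methyl-3H]spiroperidol displacement.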
# T1 sequence (P35462 whole entry): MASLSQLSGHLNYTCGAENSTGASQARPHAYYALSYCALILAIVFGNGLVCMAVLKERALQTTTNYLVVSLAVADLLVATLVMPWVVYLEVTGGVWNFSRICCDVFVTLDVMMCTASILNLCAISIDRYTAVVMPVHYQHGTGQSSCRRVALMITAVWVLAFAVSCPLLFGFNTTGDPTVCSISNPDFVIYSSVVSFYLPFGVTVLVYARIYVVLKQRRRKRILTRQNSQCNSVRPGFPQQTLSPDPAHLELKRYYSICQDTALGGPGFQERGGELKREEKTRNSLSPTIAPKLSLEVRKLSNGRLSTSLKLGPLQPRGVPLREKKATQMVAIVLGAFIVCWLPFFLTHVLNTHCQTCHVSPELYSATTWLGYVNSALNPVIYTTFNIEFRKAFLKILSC
row,SMILES,Ki [nM]
1,Cc1cc(C)c(CN2CCN(C(=O)C3CC3CN3CCC(c4noc5ccsc45)CC3)CC2)c(C)c1 (racemic) [compound 832194],23
2,O=C(C1CC1CN1CCC(c2noc3ccsc23)CC1)N1CCN(CC2CCCCC2)CC1 (racemic) [compound 832195],22.8
3,O=C(C1CC1CN1CCC(c2noc3ccsc23)CC1)N1CCN(C2CCCC2)CC1 (racemic) [compound 832196],22.9
4,O=C(C1CC1CN1CCC(c2noc3ccsc23)CC1)N1CCN(CCCc2ccccc2)CC1 (racemic) [compound 832197],17.1
5,O=C(C1CC1CN1CCC(c2noc3ccsc23)CC1)N1CCC(CCN2CCCC2)CC1 (racemic) [compound 832198],5.81
6,O=C(NC1CCN(c2ncccc2C(F)(F)F)C1)C1CC1CN1CCC(c2noc3ccsc23)CC1 (racemic) [compound 832199],18.7
7,O=C(NC1CCN(Cc2cccc(F)c2F)CC1)C1CC1CN1CCC(c2noc3ccsc23)CC1 (racemic) [compound 832340],11.5
8,O=C(NC1CCN(CC2CC2)CC1)C1CC1CN1CCC(c2noc3ccsc23)CC1 (racemic) [compound 832341],2.63
9,O=C(NC1CCN(Cc2cc(F)cc(F)c2)CC1)C1CC1CN1CCC(c2noc3ccsc23)CC1 (racemic) [compound 832343],0.718
10,O=C(NC1CCN(Cc2ccc(F)cc2F)CC1)C1CC1CN1CCC(c2noc3ccsc23)CC1 (racemic) [compound 832344],2.76
11,O=C(NC1CCN(Cc2cc(F)ccc2Cl)CC1)C1CC1CN1CCC(c2noc3ccsc23)CC1 (racemic) [compound 832346],12.9
12,O=C(NC1CCN(Cc2cc(Cl)ccc2Cl)CC1)C1CC1CN1CCC(c2noc3ccsc23)CC1 (racemic) [compound 832347],1.88
13,Cc1cccc(CN2CCC(NC(=O)C3CC3CN3CCC(c4noc5ccsc45)CC3)CC2)c1 (racemic) [compound 832348],0.465
14,CC(C)(C)OC(=O)N1CCC(NC(=O)C2CC2CN2CCC(c3noc4ccsc34)CC2)CC1 (racemic) [compound 832391],77.9
15,O=C(NC1CCN(Cc2ncc[nH]2)CC1)C1CC1CN1CCC(c2noc3ccsc23)CC1 (racemic) [compound 832392],2.29
16,O=C(NC1CCN(Cc2ccncc2)CC1)C1CC1CN1CCC(c2noc3ccsc23)CC1 (racemic) [compound 832393],8.44
17,O=C(NC1CCN(Cc2cccnc2)CC1)C1CC1CN1CCC(c2noc3ccsc23)CC1 (racemic) [compound 832394],8.32

row,SMILES,Ki [nM]
1,O=C(NCCSc1ccc(Cl)cc1)C1CC1CN1CCC(c2noc3ccsc23)CC1 (racemic) [compound 832397],51.9
2,O=C(NC1CCN(C(=O)c2ccc(Cl)c(Cl)c2)CC1)C1CC1CN1CCC(c2noc3ccsc23)CC1 (racemic) [compound 832464],12.8
3,O=C(NC1CCN(C(=O)c2ccc(Cl)s2)CC1)C1CC1CN1CCC(c2noc3ccsc23)CC1 (racemic) [compound 832487],66.1
4,O=C(NC1CCN(C(=O)c2cccc(Cl)c2)CC1)C1CC1CN1CCC(c2noc3ccsc23)CC1 (racemic) [compound 832488],39.5
5,CCN1CCN(C(=O)N2CCC(NC(=O)C3CC3CN3CCC(c4noc5ccsc45)CC3)CC2)C(=O)C1=O (racemic) [compound 832489],95
6,O=C(NC1CCN(C(=O)c2ccc(Cl)nc2)CC1)C1CC1CN1CCC(c2noc3ccsc23)CC1 (racemic) [compound 832505],40.6
7,CCN1CCC(NC(=O)C2CC2CN2CCC(c3noc4ccsc34)CC2)CC1 (racemic) [compound 833372],1.04
8,"CN1CCCC1CCNC(=O)[C@@H]1C[C@H]1CN1CCC(c2noc3ccsc23)CC1 (single isomer, unassigned) [compound 832513]",55.4
9,C[C@H]1CC[C@H](NC(=O)C2(CCN3CCC(c4noc5ccsc45)CC3)CC2)CC1 [832241A],51.8
10,CC[C@H]1CC[C@H](NC(=O)C2(CCN3CCC(c4noc5ccsc45)CC3)CC2)CC1 [832242A],436
11,CC[C@H]1CC[C@H](NC(=O)[C@@H]2C[C@H]2CN2CCN(c3nn(C)c4ccc(OC)cc34)CC2)CC1 [832747ES],1.05
12,C[C@H]1CC[C@H](N2CC(CN3CCN(c4noc5ccsc45)CC3)CC2=O)CC1 (some centres unmarked) [832831DA],1150
13,Cn1nc(N2CCN(C[C@@H]3C[C@H]3C(=O)N[C@H]3CC[C@H](O)CC3)CC2)c2sccc21 [8319560A],5.91
14,COc1cccc2c(C3CCN(C[C@@H]4C[C@H]4C(=O)NC4CC5CCC(C4)N5C)CC3)nn(C)c12 (some centres unmarked) [A002328939],201
15,Cc1ccc2c(c1)c(C1CCN(C[C@@H]3C[C@H]3C(=O)NC3C4CCC3CN(C)C4)CC1)nn2C (some centres unmarked) [A002328940],26.8
16,Cn1nc(C2CCN(C[C@@H]3C[C@H]3C(=O)N3CCC(Cn4ccnc4)CC3)CC2)c2cccc(C(F)(F)F)c21 [A002329095],26.5
17,Cn1nc(C2CCN(C[C@@H]3C[C@H]3C(=O)NCC3CCNCC3)CC2)c2ccc(C(F)(F)F)cc21 [A002436288A],106

# More lines, now with the values ahead:
row,Ki [nM],SMILES
1,1.51,O=C([C@@H]1C[C@H]1CN1CCC(c2noc3ccc(C(F)(F)F)cc23)CC1)N1CCC(Cn2ccnc2)CC1 [A002200836]
2,0.368,O=C(NCCCn1ccnc1)[C@@H]1C[C@H]1CN1CCC(c2noc3ccc(C(F)(F)F)cc23)CC1 [A002200837]
3,0.807,O=C(NCCCN1CCCCC1)[C@@H]1C[C@H]1CN1CCC(c2noc3ccc(C(F)(F)F)cc23)CC1 [A002200838]
4,119,Cn1nc(N2CCN(CCCC(=O)N[C@H]3CC[C@H](C)CC3)CC2)c2sccc21 [A002201941]
5,205,CCCCn1nc(N2CCN(C[C@@H]3C[C@H]3C(=O)NCCCn3ccnc3)CC2)c2sccc21 [A002202401]
6,86.8,Cn1nc(N2CCN(C[C@@H]3C[C@H]3C(=O)NCCCn3cnc4ccccc43)CC2)c2sccc21 [A002202403]
7,25.1,COc1ccc2c(c1)c(N1CCN(C[C@@H]3C[C@H]3C(=O)NCCCn3cnc4ccccc43)CC1)nn2C [A002243383]
8,133,O=C(NCCCn1cnc2ccccc21)[C@@H]1C[C@H]1CN1CCN(c2csc3cc(C(F)(F)F)ccc23)CC1 [A002243384]
9,661,O=C(NCCCn1cnc2ccccc21)[C@@H]1C[C@H]1CN1CCN(c2nn(-c3ccc(OC(F)(F)F)cc3)c3ccsc23)CC1 [A002243385]
10,492,O=C(N[C@H]1CC[C@H](O)CC1)[C@@H]1C[C@H]1CN1CCN(c2nn(-c3cccc(F)c3)c3ccsc23)CC1 [A002243404]
11,3.57,O=C(NC1CCNCC1)[C@@H]1C[C@H]1CN1CCC(c2csc3cc(C(F)(F)F)ccc23)CC1 [A002287513]
12,2.41,Cn1nc(N2CCN(C[C@@H]3C[C@H]3C(=O)NC3CCN(CC4CCCCC4)CC3)CC2)c2sccc21 [A002287757]
13,139,CN1CCN(CCCNC(=O)[C@@H]2C[C@H]2CN2CCN(c3nn(-c4ccc(OC(F)(F)F)cc4)c4ccsc34)CC2)CC1 [A002287758]
14,0.48,O=C(NCCCN1CCCCC1)[C@@H]1C[C@H]1CN1CCC(c2noc3cc(C(F)(F)F)ccc23)CC1 [A002287764]
15,0.011,"O=C(NCCCn1ccnc1)[C@@H]1C[C@H]1CN1CCC(c2noc3cc(C(F)(F)F)ccc23)CC1 [A002287765, 2R-[4-(6-Trifluoromethyl-benzo[d]isoxazol-3-yl)-piperidin-1-ylmethyl]-1R-cycloproanecarboxylic acid (3-imidazol-1-yl-propyl)-amide]"
16,126,O=C([C@@H]1C[C@H]1CN1CCC(c2noc3cc(C(F)(F)F)ccc23)CC1)N1CCC[C@@H](Cn2ccnc2)C1 [A002287766]

row,Ki [nM],SMILES
1,3.3,"O=C(NCCCn1ccnc1)[C@@H]1C[C@H]1CN1CCC(c2nn(CC(F)(F)F)c3ccsc23)CC1 [A002287767, 2R-{4-[1-(2,2,20Trifluoro-ethyl)-1H-thieno[3,2-c]pyrazol-3-yl)-piperidin-1-ylmethyl]-1R-cycloproanecarboxylic acid (3-imidazol-1-yl-propyl)-amide]"
2,160,CN1CCN(CCCNC(=O)[C@@H]2C[C@H]2CN2CCN(c3nn(C)c4ccsc34)CC2)CC1 [A002329040]
3,101,O=C(NCCCn1ccnc1)[C@@H]1C[C@H]1CN1CCC(c2nsc3cc(Br)ccc23)CC1 [A002329097]
4,345,O=C([C@@H]1C[C@H]1CN1CCC(c2nsc3cc(Br)ccc23)CC1)N1CCC(Cn2ccnc2)CC1 [A002329098]
5,6.32,O=C(NCCCN1CCCCC1)[C@@H]1C[C@H]1CN1CCC(c2nsc3cc(Br)ccc23)CC1 [A002329100]
6,100,CC1CCN(CCCNC(=O)[C@@H]2C[C@H]2CN2CCN(c3nn(C)c4ccsc34)CC2)CC1 [A002350369]
7,520,Cn1nc(C2CCN(C[C@@H]3C[C@H]3C(=O)NCCCN3CCCCC3)CC2)c2sccc21 [A002436290]
8,0.629,"Cn1nc(C2CCN(C[C@@H]3C[C@H]3C(=O)NCCCn3ccnc3)CC2)c2sccc21 [A002436291, 2R-[4-(1-Methyl-1H-thieno[3,2-c]pyrazol-3-yl)-piperidin-1-ylmethyl]-1R-cycloproanecarboxylic acid (3-imidazol-1-yl-propyl)-amide]"
9,2.17,Cn1nc(N2CCN(C[C@@H]3C[C@H]3C(=O)NC3CCN(Cc4ccc(F)c(F)c4)CC3)CC2)c2sccc21 [A002436428]
10,4.16,Cn1nc(N2CCN(C[C@@H]3C[C@H]3C(=O)NC3CCN(Cc4cc(F)ccc4F)CC3)CC2)c2sccc21 [A002436429]
11,9.23,O=C(NC1CCN(Cc2cc(F)ccc2F)CC1)[C@@H]1C[C@H]1CN1CCN(c2nn(-c3ccc(OC(F)(F)F)cc3)c3ccsc23)CC1 [A002437082]
12,7.11,O=C(NC1CCN(CC2CCCCC2)CC1)[C@@H]1C[C@H]1CN1CCN(c2nn(-c3ccc(OC(F)(F)F)cc3)c3ccsc23)CC1 [A002437084]
13,91.9,O=C(NCCCN1CCCCC1)[C@@H]1C[C@H]1CN1CCN(c2csc3ncccc23)CC1 [A002437094]
14,32.7,O=C([C@@H]1C[C@H]1CN1CCN(c2nc3cccc4c3n2CCC4)CC1)N1CCC(Cn2ccnc2)CC1 [A002437351]
15,1.22,Cn1nc(C2CCN(C[C@@H]3C[C@H]3C(=O)N3CCC[C@@H](Cn4ccnc4)C3)CC2)c2sccc21 [A002437352]

# From patent publication US7772252B2, “Heterocyclic substituted carbonyl derivatives and their use as dopamine D3 receptor ligands” (Aventis Pharmaceuticals Inc., priority 2001, dated 2010)
